SMILES strings stand for the structures. pIC50: −log10 of the molar value.

T1 sequence (P56817 22-460): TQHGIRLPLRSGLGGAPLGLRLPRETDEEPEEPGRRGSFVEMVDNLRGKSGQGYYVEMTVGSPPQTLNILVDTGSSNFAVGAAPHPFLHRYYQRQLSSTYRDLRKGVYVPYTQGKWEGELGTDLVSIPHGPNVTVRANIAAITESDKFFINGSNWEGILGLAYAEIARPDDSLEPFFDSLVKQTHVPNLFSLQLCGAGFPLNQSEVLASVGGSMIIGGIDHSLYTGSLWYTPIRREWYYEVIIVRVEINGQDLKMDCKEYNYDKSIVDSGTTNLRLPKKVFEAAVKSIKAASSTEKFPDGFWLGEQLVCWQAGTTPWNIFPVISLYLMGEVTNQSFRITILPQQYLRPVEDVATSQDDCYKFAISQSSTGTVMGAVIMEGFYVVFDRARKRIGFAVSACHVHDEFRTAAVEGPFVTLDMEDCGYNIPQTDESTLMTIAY

This assay addresses T1, human β-Secretase (sBACE-Fc) (Homo sapiens, UniProt P56817).
T1 construct: The soluble part of the human β-Secretase (AA 1-AA 460) was cloned; Fc domain of IgG1 (C); made in house
Kind of assay: TR-FRET assay (β-secretase enzyme, substrate (Europium)[…](Qsy7)). The class given is biochemical. How it is done: The enzyme used in the IGEN Cleavage-, Fluorescent-, TR-FRET- and BiaCore assays is described as follows:
The soluble part of the human β-Secretase (AA 1-AA 460) was cloned into the ASP2-Fc10-1-IRES-GFP-neoK mammalian expression vector. The gene was fused to the Fc domain of IgG1 (affinity tag) and stably cloned into HEK 293 cells. Purified sBACE-Fc is stored in Tris buffer, pH 9.2 and has a purity of 95%.
Enzyme was diluted to 6 μg/mL and the substrate (Europium)[…](Qsy7) to 200 nM in reaction buffer (NaAcetate, chaps, triton x-100, EDTA pH 4.5). Compounds were diluted to the desired concentration in dimethyl sulfoxide (final dimethyl sulfoxide concentration in assay is 5%). The assay was done in a Costar 384 well round bottom, low volume, non-binding surface plate (Corning #3676). Enzyme (9 μL) and 1 μL of compound in dimethyl sulfoxide was added to the plate, mixed and pre-incubated for 10 min. Substrate (10 μL) was added and the reaction proceeded in the dark for 15 min at RT. The reaction was stopped with the addition of 7 μL NaAcetate, pH 9. The fluorescence of the product was measured on a Victor II plate reader with an excitation wavelength of 340 nm and an emission wavelength of 615 nm. […] The dimethyl sulfoxide control defined the 100% activity level and 0% activity was defined by exclusion of the enzyme (using reaction buffer instead).
(In general: Time-resolved FRET reads energy transfer from a long-lived donor to a nearby acceptor.)
As usually defined, the pIC50 is the IC50 on a negative log10 scale, so that one unit is a factor of ten. Read a low pIC50 as a high IC50. As to `COc1cc(-c2cccc(C3(c4ccncc4)N=C(N)N4CCCN=C43)c2)ccc1F` (stereo not drawn) [Example 32, 8-(4′-Fluoro-3′-methoxybiphenyl-3-yl)-8-pyridin-4-yl-2,3,4,8-tetrahydroimidazo[1,5-a]pyrimidin-6-amine 0.25 acetate], the pIC50 is 6.29.
As for `CCOc1cccc(-c2cccc(C3(c4ccncc4)N=C(N)N4CCCN=C43)c2)c1` (stereo not drawn) [Example 30, 8-(3′-Ethoxybiphenyl-3-yl)-8-pyridin-4-yl-2,3,4,8-tetrahydroimidazo[1,5-a]pyrimidin-6-amine 0.25 acetate], the figure is 6.48.
As for `COc1cc(Cl)cc(-c2cccc(C3(c4ccncc4)N=C(N)N4CCCN=C43)c2)c1` (stereo not drawn) [Example 27, 8-(3′-Chloro-5′-methoxybiphenyl-3-yl)-8-pyridin-4-yl-2,3,4,8-tetrahydroimidazo[1,5-a]pyrimidin-6-amine 0.25 acetate], the figure is 7.18.
As for `COc1ccc(F)c(-c2cccc(C3(c4ccncc4)N=C(N)N4CCCN=C43)c2)c1` (stereo not drawn) [Example 19, 8-(2′-Fluoro-5′-methoxybiphenyl-3-yl)-8-pyridin-4-yl-2,3,4,8-tetrahydroimidazo[1,5-a]pyrimidin-6-amine 0.25 acetate], the figure is 7.13.
As for `NC1=NC(c2ccncc2)(c2cccc(-c3cc(Cl)cnc3F)c2)C2=NCC(F)(F)CN12` (stereo not drawn) [Example 73, 3,3-Difluoro-8-[3-(5-Chloro-2-fluoropyridin-3-yl)phenyl]-8-pyridin-4-yl-2,3,4,8-tetrahydroimidazo[1,5-a]pyrimidin-6-amine acetate], the pIC50 is 7.21.
`COc1cc(OS(C)(=O)=O)cc(-c2cccc(C3(c4ccncc4)N=C(N)N4CCCN=C43)c2)c1` (stereo not drawn) [Example 35, 3′-(6-Amino-8-pyridin-4-yl-2,3,4,8-tetrahydroimidazo[1,5-a]pyrimidin-8-yl)-5-methoxybiphenyl-3-yl methanesulfonate 0.25 acetate] gave a negative logarithm of the IC50 (pIC50) of 7.24.
To `NC1=NC(c2ccncc2)(c2cccc(-c3cc(Cl)cnc3F)c2)C2=NCCCN12` (stereo not drawn) [Example 29, 8-[3-(5-Chloro-2-fluoropyridin-3-yl)phenyl]-8-pyridin-4-yl-2,3,4,8-tetrahydroimidazo[1,5-a]pyrimidin-6-amine 0.25 acetate] belongs 7.06; to `NC1=NC(c2ccncc2)(c2cccc(-c3cc(Cl)cc(Cl)c3)c2)C2=NCCCN12` (stereo not drawn) [Example 26, 8-(3′,5′-Dichlorobiphenyl-3-yl)-8-pyridin-4-yl)-2,3,4,8-tetrahydroimidazo[1,5-a]pyrimidin-6-amine 0.25 acetate], 7.60.
As for `COc1cccc(-c2cccc(C3(c4ccco4)N=C(N)N4CCCN=C43)c2)c1` (stereo not drawn) [Example 51, 8-(2-Furyl)-8-(3′-methoxybiphenyl-3-yl)-2,3,4,8-tetrahydroimidazo[1,5-a]pyrimidin-6-amine acetate], the figure is 6.33.

For the origin of these results see patent US20070299087A1, “New Compounds 319” (AstraZeneca AB, priority 2006, published 2007).
